Test results as given in ChEMBL document CHEMBL4739714, “Inhibitors of cyclin-dependent kinase 12 (cdk12) and uses thereof” (2020).
Calls of active or inactive are those of the source. The calls are words filed in the database; no cut-off is given here.

Assays:
Assay type in all cases: cell-based
[1] = target: Cyclin-dependent kinase 12 (Homo sapiens) (UniProt Q9NYV4); experiment: Inhibition of biotinylated-THZ1 binding to CDK12 in human Jurkat cells assessed as reduction in cyclin K pull down at 1 uM preincubated for 6 hrs followed by biotinylated-THZ1 addition by Western blotting based pull-down assay
Sequence of Cyclin-dependent kinase 12 (Homo sapiens) (Q9NYV4 whole entry, looked up): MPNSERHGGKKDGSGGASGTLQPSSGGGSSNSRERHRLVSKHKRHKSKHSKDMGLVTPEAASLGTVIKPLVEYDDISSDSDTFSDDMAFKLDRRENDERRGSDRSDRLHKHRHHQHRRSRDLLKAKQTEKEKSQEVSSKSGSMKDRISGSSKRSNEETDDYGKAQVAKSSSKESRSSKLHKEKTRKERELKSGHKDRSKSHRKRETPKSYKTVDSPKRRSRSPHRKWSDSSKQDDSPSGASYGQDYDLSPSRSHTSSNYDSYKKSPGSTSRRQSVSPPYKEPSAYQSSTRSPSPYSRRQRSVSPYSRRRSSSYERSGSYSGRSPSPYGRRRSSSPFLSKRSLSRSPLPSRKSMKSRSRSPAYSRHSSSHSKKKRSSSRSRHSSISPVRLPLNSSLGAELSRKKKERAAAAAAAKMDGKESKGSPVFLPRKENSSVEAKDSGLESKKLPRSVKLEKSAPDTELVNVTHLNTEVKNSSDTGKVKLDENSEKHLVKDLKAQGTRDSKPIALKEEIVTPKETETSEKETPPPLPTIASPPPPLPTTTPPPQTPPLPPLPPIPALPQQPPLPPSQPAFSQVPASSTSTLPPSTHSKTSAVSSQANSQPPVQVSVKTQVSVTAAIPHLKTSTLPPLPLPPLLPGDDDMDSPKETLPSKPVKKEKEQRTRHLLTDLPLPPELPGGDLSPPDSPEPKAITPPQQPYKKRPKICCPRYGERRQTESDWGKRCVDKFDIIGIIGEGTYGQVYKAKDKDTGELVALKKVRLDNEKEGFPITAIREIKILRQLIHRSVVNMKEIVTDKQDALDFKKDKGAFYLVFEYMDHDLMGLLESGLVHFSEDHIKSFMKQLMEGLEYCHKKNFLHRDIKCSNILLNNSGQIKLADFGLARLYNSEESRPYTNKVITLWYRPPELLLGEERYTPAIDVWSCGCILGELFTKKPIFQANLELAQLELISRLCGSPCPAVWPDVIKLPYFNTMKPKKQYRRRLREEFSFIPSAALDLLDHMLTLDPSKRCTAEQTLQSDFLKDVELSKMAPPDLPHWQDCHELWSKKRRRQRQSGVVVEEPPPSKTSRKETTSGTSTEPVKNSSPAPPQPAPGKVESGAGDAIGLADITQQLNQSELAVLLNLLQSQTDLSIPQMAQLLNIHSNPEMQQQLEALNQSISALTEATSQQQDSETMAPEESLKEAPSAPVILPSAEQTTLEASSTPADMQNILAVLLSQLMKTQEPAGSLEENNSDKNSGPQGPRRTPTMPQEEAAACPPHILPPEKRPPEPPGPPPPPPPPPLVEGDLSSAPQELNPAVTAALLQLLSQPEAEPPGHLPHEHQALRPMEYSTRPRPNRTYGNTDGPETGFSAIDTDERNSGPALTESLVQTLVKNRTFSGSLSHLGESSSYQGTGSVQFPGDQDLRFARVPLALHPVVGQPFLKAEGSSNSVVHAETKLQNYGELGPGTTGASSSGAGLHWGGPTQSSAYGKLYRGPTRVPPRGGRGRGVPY

[2] = target: Cyclin-dependent kinase 7 (Homo sapiens) (UniProt P50613); experiment: Inhibition of biotinylated-THZ1 binding to CDK7 in human Jurkat cells assessed as reduction in cyclin H pull down at 1 uM preincubated for 6 hrs followed by biotinylated-THZ1 addition by Western blotting based pull-down assay
Sequence of Cyclin-dependent kinase 7 (Homo sapiens) (P50613 whole entry): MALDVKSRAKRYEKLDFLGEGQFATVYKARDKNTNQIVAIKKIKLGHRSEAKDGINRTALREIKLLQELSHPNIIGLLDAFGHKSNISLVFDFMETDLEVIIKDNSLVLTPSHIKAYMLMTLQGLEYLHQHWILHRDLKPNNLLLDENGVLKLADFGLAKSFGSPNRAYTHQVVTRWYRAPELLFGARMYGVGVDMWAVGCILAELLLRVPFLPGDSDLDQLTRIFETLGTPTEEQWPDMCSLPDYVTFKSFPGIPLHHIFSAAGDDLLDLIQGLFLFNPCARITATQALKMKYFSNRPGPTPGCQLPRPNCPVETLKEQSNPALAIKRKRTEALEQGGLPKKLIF

[3] = target: Cyclin-dependent kinase 12/13 (Homo sapiens) (UniProt Q14004+Q9NYV4); experiment: Inhibition of biotinylated-THZ1 binding to CDK12/CDK13 in human Jurkat cells assessed as reduction in cyclin K pull down at 1 uM preincubated for 6 hrs followed by biotinylated-THZ1 addition by Western blotting based pull-down assay

For `C=CC(=O)Nc1ccc(O[C@@H]2CCC[C@@H](Nc3ncc(Cl)c(-c4c[nH]c5ccccc45)n3)C2)cc1`, the inhibition [1] was “inactive”.

For `CN(C)C/C=C/C(=O)Nc1ccc(N2CCC[C@@H](Nc3ncc(Cl)c(-c4c[nH]c5ccccc45)n3)C2)nc1`, the inhibition [1] was “inactive” and the inhibition [2] was “inactive”.

In the case of `CN(C)C/C=C/C(=O)Nc1ccc(C(=O)Nc2cccc(Nc3ncc(Cl)c(-c4c[nH]c5ccccc45)n3)c2)cc1`, the inhibition [3] is reported as “Active” and the inhibition [2] is reported as “Active”.

In the case of `CN(C)C/C=C/C(=O)Nc1ccc(O[C@@H]2CCC[C@@H](Nc3ncc(Cl)c(-c4c[nH]c5ccccc45)n3)C2)cc1`, the inhibition [3] is reported as “Active”, the inhibition [1] is reported as “inactive” and the inhibition [2] is reported as “inactive”.

For `C=CC(=O)Nc1ccc(N2CCC[C@@H](Nc3ncc(Cl)c(-c4c[nH]c5ccccc45)n3)C2)cc1`, the inhibition [1] was “inactive” and the inhibition [2] was “inactive”.

For `C=CC(=O)Nc1ccc(N2CCC[C@@H](Nc3ncc(Cl)c(-c4c[nH]c5ccccc45)n3)C2)nc1`, the inhibition [1] was “inactive”.

For `CN(C)C/C=C/C(=O)Nc1ccc(C(=O)N2CCC[C@@H](Nc3ncc(Cl)c(-c4c[nH]c5ccccc45)n3)C2)nc1`, the inhibition [1] was “inactive”.
